ChEMBL document CHEMBL1127412, “PRO_LIGAND: an approach to de novo molecular design. 2. Design of novel molecules from molecular field analysis (MFA) models and pharmacophores” (J Med Chem, 1994)
Non-standard residues stand in square brackets, D forms with d. Residues, ends and D or L forms follow the SMILES beside them. Nle = CCCC[C@H](N)C(=O)O

biological target: Angiotensin-converting enzyme (Homo sapiens, UniProt P12821); assay: Inhibition against ACE.

Compared with `C[C@H](NC(=O)[C@@H](N)Cc1ccccc1)C(=O)N1CCC[C@H]1C(=O)O` (H-Phe-Ala-Pro-OH), `N[C@@H](Cc1ccccc1)C(=O)N1CCC[C@H]1C(=O)N1CCC[C@H]1C(=O)O` (H-Phe-Pro-Pro-OH) is 19-fold higher in IC50: 4.2 µM for the first, 78 µM for the second.

Going from `CC(C)C[C@H](N)C(=O)N[C@@H](C)C(=O)N1CCC[C@H]1C(=O)O` (H-Leu-Ala-Pro-OH) to `CCCC[C@H](N)C(=O)N[C@@H](C)C(=O)N1CCC[C@H]1C(=O)O` (H-[Nle]-Ala-Pro-OH), the IC50 falls from 2.3 µM to 0.7 µM (3.3-fold).

Compared with `CC[C@H](C)[C@H](N)C(=O)N[C@@H](Cc1ccc(O)cc1)C(=O)O` (H-Ile-Tyr-OH), `C[C@H](NC(=O)[C@@H](N)CCCNC(=N)N)C(=O)N1CCC[C@H]1C(=O)O` (H-Arg-Ala-Pro-OH) is 4.3-fold higher in IC50: 3.7 µM for the first, 16 µM for the second.
